{"source": "paper PMC6768041", "about": "(Chemistry Central Journal, 2018)", "origin": "cited, not measured here", "key": {"[1]": {"target": "T1, hMAO-A (Homo sapiens, UniProt P21397)", "T1 construct": "host or cells: insect cells (BTI-TN-5B14), recombinant baculovirus", "T1 sequence (P21397 1-527)": "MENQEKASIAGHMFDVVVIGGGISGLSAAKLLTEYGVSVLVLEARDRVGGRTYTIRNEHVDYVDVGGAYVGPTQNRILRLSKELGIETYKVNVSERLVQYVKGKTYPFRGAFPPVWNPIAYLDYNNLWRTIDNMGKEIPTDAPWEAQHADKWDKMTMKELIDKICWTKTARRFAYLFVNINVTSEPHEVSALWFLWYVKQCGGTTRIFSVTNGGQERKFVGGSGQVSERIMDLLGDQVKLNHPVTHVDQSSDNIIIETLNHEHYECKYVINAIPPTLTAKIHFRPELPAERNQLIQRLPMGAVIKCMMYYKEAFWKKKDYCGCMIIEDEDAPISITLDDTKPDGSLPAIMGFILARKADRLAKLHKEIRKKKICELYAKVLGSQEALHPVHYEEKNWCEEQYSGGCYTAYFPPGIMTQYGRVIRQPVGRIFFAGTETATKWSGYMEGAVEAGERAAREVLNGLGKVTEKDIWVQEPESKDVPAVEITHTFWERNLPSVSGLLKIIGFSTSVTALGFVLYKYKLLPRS", "settings": "cited from earlier work"}, "[2]": {"target": "T2, hMAO-B (Homo sapiens, UniProt P27338)", "T2 construct": "host or cells: insect cells (BTI-TN-5B14), recombinant baculovirus", "T2 sequence (P27338 1-520)": "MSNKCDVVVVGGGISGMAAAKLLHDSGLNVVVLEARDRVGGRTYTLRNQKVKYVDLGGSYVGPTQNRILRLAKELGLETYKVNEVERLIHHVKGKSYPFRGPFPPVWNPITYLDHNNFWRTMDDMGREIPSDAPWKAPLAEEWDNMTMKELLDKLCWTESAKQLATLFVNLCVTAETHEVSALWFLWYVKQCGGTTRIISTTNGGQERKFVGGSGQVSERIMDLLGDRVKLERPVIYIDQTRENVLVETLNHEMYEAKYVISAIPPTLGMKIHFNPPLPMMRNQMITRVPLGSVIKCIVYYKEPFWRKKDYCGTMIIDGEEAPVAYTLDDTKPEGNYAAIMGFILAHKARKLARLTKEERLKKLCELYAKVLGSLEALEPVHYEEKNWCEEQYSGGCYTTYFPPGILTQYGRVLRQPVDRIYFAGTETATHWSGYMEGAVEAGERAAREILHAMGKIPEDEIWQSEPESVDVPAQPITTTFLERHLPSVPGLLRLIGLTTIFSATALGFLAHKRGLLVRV", "set-up": "method as in PMID 26592858", "settings": "cited from earlier work"}}}
{"smiles": "COc1cc(/C=C/C(=O)O)ccc1O", "note": "[Ferulic acid]", "values": [{"measurement": "MAO inhibition value hMAO-A", "setting": "[1]", "result": "7.55 ± 0.49", "unit": "µM"}, {"measurement": "MAO inhibition value hMAO-B", "setting": "[2]", "result": "24.00 ± 1.98", "unit": "µM"}]}
